“And” between values parts separate entries of the source, which are not always exact repeats. Identical values can stand only once. Like-named read-outs stand apart in the source and are kept apart here.
Assays:
ARE-NLuc::HaCaT [1] = tested on: ARE-NLuc::HaCaT
AhR [2] = test: XRE reporter assay for AD evaluation (AD cell model); details: for inhibitory effect in the AD cell model, compared in words: 0.5 μM FICZ, XRE-NLuc::HaCaT, not as strong as linalyl acetate; for inhibitory effect in the AD cell model, compared in words / IC50: 24 h; for IC50: Homo sapiens, read-out: IC50 of inhibition of AD (XRE reporter expression)
ARE-NLuc::HaCaT [3] = tested on: ARE-NLuc::HaCaT; remark: listed apart in the source
CD86 on U937 cells [4] = tested on: CD86 on U937 cells; parameters: method as in PMID 23576290; details: cited from earlier work
Artemin = test: FICZ-induced Artemin mRNA expression by qPCR in HaCaT cells; type: cell-based; details: Homo sapiens, 24 h, read-out: IC50 of decrease of FICZ-induced Artemin expression
ARE-NLuc::HaCaT [5] = test: Cell viability (WST-1) in the keratinocyte activation assay; details: 48 h, mean ± SD of three experiments
AhR [6] = test: AhR mRNA level by qPCR in HaCaT cells; type: cell-based, human; details: FICZ with or without linalyl acetate or linalool, 24 h
ARE-NLuc::HaCaT [7] = test: Keratinocyte activation assay (ARE reporter assay, OECD TG442D); details: 48 h; positive criteria of TG442D
[8] = cited from earlier work
ARNT [9] = test: ARNT protein level by western blotting in HaCaT cells; type: cell-based, human; details: FICZ alone, 24 h
Source text: All the Western blots are shown from two (anti-ARNT) or three (anti-AhR and anti-gamma tubulin) independent experiments. […] The intensities are relative to the vehicle set at 1.

ARNT [10] = test: ARNT mRNA level by qPCR in HaCaT cells; type: cell-based, human; details: FICZ with or without linalyl acetate or linalool, 24 h
Source text: Briefly, the total RNA was extracted, and reverse transcribed using SuperPrep II Cell Lysis & RT Kit for qPCR (#SCQ-401, Toyobo, Tokyo, Japan), according to the manufacturer’s instructions. The cDNA obtained was subjected to a quantitative polymerase chain reaction (qPCR) with THUNDERBIRD Next SYBR qPCR Mix (#QPX-201, Toyobo) according to the manufacturer’s protocol using the StepOne Real-Time PCR System (Thermo Fisher Japan, Tokyo, Japan). The expression of each gene obtained using qPCR was normalized to that of glyceraldehyde-3-phosphate dehydrogenase (GAPDH). […] The cycle threshold (Ct) value of GAPDH in each sample was used as an internal control.
Total RNA was then extracted and reverse transcribed to cDNA that was subjected to qPCR using the primer set listed in S2 Table in S1 File. AhR and ARNT expression was normalized to GAPDH expression. Fold induction was calculated as the vehicle set at 1. Values in the graphs represent the mean ± SD of two independent experiments. […] All the Western blots are shown from two (anti-ARNT) or three (anti-AhR and anti-gamma tubulin) independent experiments. […] The intensities are relative to the vehicle set at 1.

[11] = cited from earlier work; remark: listed apart in the source
U937 cells [12] = details: human
AhR [13] = test: AhR protein level by western blotting in HaCaT cells; type: cell-based, human; details: FICZ and linalyl acetate, 24 h
Method: Sodium dodecyl sulfate–polyacrylamide gel electrophoresis (SDS–PAGE) and western blotting were performed as described previously. Cell lysates were prepared in lysis buffer [10 mM HEPES-KOH, pH 7.4, 100 mM KCl, 1 mM MgCl2, 1% Triton X-100, and protease inhibitor cocktails (Nacalai)]. After incubation for 10 min on ice, the lysate was clarified by centrifugation at 14,000 × g for 10 min. The supernatants were then subjected to SDS–PAGE on a 7.5% gel (Bio-Rad). The gel was electrotransferred to polyvinylidene fluoride or polyvinylidene difluoride membranes (pore size: 0.45 μm, Merck Group Japan, Tokyo, Japan). The proteins on the membrane were detected by incubation with diluted anti-AhR, anti-ARNT (Santa Cruz Biotechnology, Cosmo Bio Co., LTD, Tokyo, Japan), and anti-γ-tubulin (Sigma, Sigma-Aldrich Japan, Tokyo, Japan) followed by HRP-conjugated anti-mouse immunoglobulin G (Cell Signaling, CST Japan, Tokyo, Japan) using a charge-coupled device camera.
Next, we measured the mRNA and protein expression of AhR and ARNT by qPCR and western blotting, respectively.
Total RNA was then extracted and reverse transcribed to cDNA that was subjected to qPCR using the primer set listed in S2 Table in S1 File. […] Fold induction was calculated as the vehicle set at 1. […] The right-side numbers are experimental numbers. d) Band intensity of each lane was quantified by ImageJ and normalized to […]. […]

CD86 on U937 cells [14] = details: for CD86+ FL1 positivity (%): 200 µg/mL, control printed for each of three test series
HaCaT cells = test: RNAseq on treated HaCaT cells analysed by DisGeNET-Metascape; type: cell-based, human; details: authors' reply to reviewer, data not shown
Source text: Thank you for your comment. […] To clarify that our conclusion is limited, we have added some words in the revised Discussion section.

[15] = Cell viability (PI staining) in the dendritic cell activation assay; details: human, U937 cells, %Viability, control printed for each of three test series
U937 cells [16] = test: as above; details: 200 µg/mL, control printed for each of three test series

With `C=CC(C)(O)CCCC(C)C` (centres unmarked) [DHL, 6,7-Dihydrolinalool] the “outcome of the keratinocyte activation assay” value (ARE-NLuc::HaCaT [1]) was “weakly positive”, the “inhibitory effect in the AD cell model, compared in words” value (AhR [2]) was “stronger inhibitory effects than linalool” and the CV70 (ARE-NLuc::HaCaT [3]) was 1319 ± 52.3 µM.

In the case of `C=CC(C)(O)CCC=C(C)C` (centres unmarked) [Linalool], the “outcome of the dendritic cell activation assay” value (CD86 on U937 cells [4]) is listed as “positive”, the IC50 (Artemin; 5 μM FICZ, qPCR normalized to GAPDH) is listed as 194 µM and the IC50 (AhR [2]) is listed as > 1000 µM. For the same compound, the CV70 (ARE-NLuc::HaCaT [5]) was >2000 µM, the “AhR mRNA level” value (AhR [6]) was “did not change” and the “outcome of the keratinocyte activation assay” value (ARE-NLuc::HaCaT [7]) was “negative”. The “Patch test (human)” value [8] was 0.2% positive ^##, ^###.

In the case of `C=C(C)C(=O)OCCOC(=O)C(=C)C` [Ethylene glycol dimethacrylate, ethylene glycol dimethacrylate, reference compound], the CV70 (ARE-NLuc::HaCaT [5]) is reported as 523 ± 59.0 µM, the CV70 (ARE-NLuc::HaCaT [5]; listed as EGDMA) is reported as 523 ± 59.0 µM and the “outcome of the keratinocyte activation assay” value (ARE-NLuc::HaCaT [7]) is reported as “positive”.

With `O=Cc1c2[nH]c3ccccc3c2cc2[nH]c3ccccc3c12` [FICZ, 6-formylindolo[3,2-b]carbazole] the ARNT protein level (ARNT [9]) was “increased”, the “AhR mRNA level” value (AhR [6]) was “did not change” and the “ARNT mRNA level” value (ARNT [10]) was “did not change”.

For `C=CC(C)(CCC=C(C)C)OC(C)=O` (centres unmarked) [Linalyl acetate], the “Key event 4, Local lymph node assay” value [11] is given as “weak positivity”, the IC50 (Artemin) is given as 3.6 µM and the IC50 (AhR [2]) is given as 519 µM. The XRE reporter expression (AhR [2]; without activation of AhR by FICZ) was “decreased XRE reporter expression”, the CV70 (ARE-NLuc::HaCaT [5]) was 1466 ± 45.4 µM and the “AhR mRNA level” value (AhR [6]) was “did not change”. For the same compound, the CV70 (U937 cells [12]) was 16 ± 3.8 µg/mL, the “outcome of the keratinocyte activation assay” value (ARE-NLuc::HaCaT [7]) was “weakly positive” and the “reduction of AhR protein level compared with FICZ alone” value (AhR [13]) was “approximately 30%”. The “S.I. value of CD86” value (CD86 on U937 cells [14]) was “less than 150”, the “outcome of the dendritic cell activation assay” value (CD86 on U937 cells [14]) was “negative” and the patch test [8] was “negativity”. For the same compound, the “evidence of contact allergy in RNAseq” value (HaCaT cells) was “no evidence of contact allergy”.

For `CCC(C)(O)CCCC(C)C` (centres unmarked) [THL, tetrahydrolinalool], the “outcome of the keratinocyte activation assay” value (ARE-NLuc::HaCaT [1]) was “weakly positive”, the “inhibitory effect in the AD cell model, compared in words” value (AhR [2]) was “stronger inhibitory effects than linalool” and the CV70 (ARE-NLuc::HaCaT [3]) was 1416 ± 90.6 µM.

In the case of `CC(O)C(=O)O` (centres unmarked) [lactic acid], the viability at 48 h, 200 µg/mL ([15]; Experiment 1, 48 h) is reported as 97.4%, the viability at 48 h, 200 µg/mL ([15]; Experiment 2, 48 h) is reported as 96.4% and the “%Viability” value (U937 cells [16]; Experiment 1, 48 h) is reported as 96.2%. The “%Viability” value (U937 cells [16]; Experiment 2, 48 h) was 95.4% and 94.4%, the “CD86+ FL1 positivity (%)” value (CD86 on U937 cells [14]; Experiment 1, 48 h) was 11.5% and 10.1% and the “CD86+ FL1 positivity (%)” value (CD86 on U937 cells [14]; Experiment 2, 48 h) was 8.4% and 12.6% and 11.7%.
